# Assay results as given in PMC5394417, “Investigating the molecular mechanism of positive and negative allosteric modulators in the calcium-sensing receptor dimer” (Scientific Reports, 2017).
# Target: T1, HA-F688A CaSR mutant (Rattus norvegicus, UniProt P48442, F688A)
# T1 construct: mGluR5 signal peptide (N); expressed in transfected cells; host or cells: HEK293T
# T1 sequence (P48442 20-1079 F688A): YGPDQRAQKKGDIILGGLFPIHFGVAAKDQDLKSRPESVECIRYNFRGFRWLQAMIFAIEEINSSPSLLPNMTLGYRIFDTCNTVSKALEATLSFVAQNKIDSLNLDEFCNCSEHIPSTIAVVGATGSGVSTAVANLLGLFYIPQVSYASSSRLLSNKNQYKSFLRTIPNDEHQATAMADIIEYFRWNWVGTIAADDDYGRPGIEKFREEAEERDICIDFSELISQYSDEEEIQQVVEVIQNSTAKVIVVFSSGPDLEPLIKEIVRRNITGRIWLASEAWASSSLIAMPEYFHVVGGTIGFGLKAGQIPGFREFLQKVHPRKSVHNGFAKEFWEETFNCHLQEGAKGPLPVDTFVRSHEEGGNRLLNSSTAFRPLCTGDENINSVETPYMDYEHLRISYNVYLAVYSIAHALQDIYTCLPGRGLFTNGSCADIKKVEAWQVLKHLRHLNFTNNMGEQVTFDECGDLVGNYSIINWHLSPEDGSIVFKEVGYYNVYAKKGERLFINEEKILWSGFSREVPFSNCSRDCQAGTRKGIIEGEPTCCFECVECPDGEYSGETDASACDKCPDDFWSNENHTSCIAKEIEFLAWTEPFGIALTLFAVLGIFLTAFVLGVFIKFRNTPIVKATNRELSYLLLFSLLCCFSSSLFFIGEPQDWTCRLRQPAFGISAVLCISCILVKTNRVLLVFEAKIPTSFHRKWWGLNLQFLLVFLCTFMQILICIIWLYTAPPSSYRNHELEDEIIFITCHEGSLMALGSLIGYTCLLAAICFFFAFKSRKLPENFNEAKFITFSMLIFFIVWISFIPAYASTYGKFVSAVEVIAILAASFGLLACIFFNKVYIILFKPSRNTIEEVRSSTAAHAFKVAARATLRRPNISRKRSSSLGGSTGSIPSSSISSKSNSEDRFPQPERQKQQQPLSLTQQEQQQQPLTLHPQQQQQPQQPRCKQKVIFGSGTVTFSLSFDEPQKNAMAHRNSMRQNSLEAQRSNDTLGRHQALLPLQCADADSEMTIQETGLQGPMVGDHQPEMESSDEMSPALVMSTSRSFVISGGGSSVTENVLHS
# Assay: IP-One assay, HEK293T transiently transfected
# Format: cell-based
smiles,measurement,setting,value
[Ca+2] [Ca^2+],EC50,Ca^2+ alone,6.11 mM
same,pEC50 ± S.E.M.,Ca^2+ alone,2.21 ± 0.01
same,Max ± S.E.M.,"Ca^2+ alone, normalized to maximum response of WT CaSR",86 ± 3.1%
same,EC50,Ca^2+ with 1 μM NPS R-568,2.86 mM
same,pEC50 ± S.E.M.,Ca^2+ with 1 μM NPS R-568,2.54 ± 0.02
same,Max ± S.E.M.,"Ca^2+ with 1 μM NPS R-568, normalized to maximum response with Ca^2+ alone for the construct",110 ± 9%
same,EC50,Ca^2+ with 5 μM NPS 2143,8.31 mM
same,pEC50 ± S.E.M.,Ca^2+ with 5 μM NPS 2143,2.08 ± 0.01
same,Max ± S.E.M.,"Ca^2+ with 5 μM NPS 2143, normalized to maximum response with Ca^2+ alone for the construct",79 ± 6.9%
